According to ChEMBL document CHEMBL1201862, “PubChem BioAssay data set” (2004):
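Five concentrations, 48 hours, 96-well plates. The concentration for 50% growth inhibition is given as GI50.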 The source made the active and inactive calls. No stated cut-off is given here; in the data, active = GI50 up to about 1.1 µM and inactive = higher.

Columns and labels:
Experiment in all cases: NCI anticancer screen, dose series, 48 h
UACC-62 = system: UACC-62
ACHN = system: ACHN
NCI-H23 = system: NCI-H23
MDA-MB-231 = system: MDA-MB-231
OVCAR-4 = system: OVCAR-4
SF-539 = system: SF-539
HCC 2998 = system: HCC 2998
PC-3 = system: PC-3
SR = system: SR
MDA-N = system: MDA-N
SK-MEL-28 = system: SK-MEL-28
SF-268 = system: SF-268
786-0 = system: 786-0
Malme-3M = system: Malme-3M
SK-MEL-5 = system: SK-MEL-5
HCT-116 = system: HCT-116
DMS-114 = system: DMS-114
EKVX = system: EKVX
DU-145 = system: DU-145
SF-295 = system: SF-295

SMILES | GI50 (UACC-62) | GI50 (ACHN) | GI50 (NCI-H23) | GI50 (MDA-MB-231) | GI50 (OVCAR-4) | GI50 (SF-539) | GI50 (HCC 2998) | GI50 (PC-3) | GI50 (SR) | GI50 (MDA-N) | GI50 (SK-MEL-28) | GI50 (SF-268) | GI50 (786-0) | GI50 (Malme-3M) | GI50 (SK-MEL-5) | GI50 (HCT-116) | GI50 (DMS-114) | GI50 (EKVX) | GI50 (DU-145) | GI50 (SF-295)
COc1ccc(OC)c2c1C(=O)C(Cl)=C(Cl)C2=O | 2.58 µM (inactive) | 2.99 µM (inactive) | 6.37 µM (inactive) | 2.74 µM (inactive) | 3.54 µM (inactive) | 4.72 µM (inactive) | 17.3 µM (inactive) | 14.5 µM (inactive) | 1.16 µM (inactive) | 2.08 µM (inactive) | 3.79 µM (inactive) | 13.5 µM (inactive) | 3.41 µM (inactive) | 2.25 µM (inactive) | 5.64 µM (inactive) | 1.72 µM (inactive) | 2.16 µM (inactive) | 8.3 µM (inactive) | 19.6 µM (inactive) | 20.1 µM (inactive)
Oc1ncnc2c1sc(=S)n2-c1ccccc1 | > 100 µM (inactive) | > 100 µM (inactive) | > 100 µM (inactive) |  | > 100 µM (inactive) | > 100 µM (inactive) | > 100 µM (inactive) |  | > 100 µM (inactive) |  | > 100 µM (inactive) | > 100 µM (inactive) | > 100 µM (inactive) | > 100 µM (inactive) | > 100 µM (inactive) | > 100 µM (inactive) | > 100 µM (inactive) | > 100 µM (inactive) |  | > 100 µM (inactive)
CC(C)Cc1ccc(C(C)CC2=CCC(CN(C)C)C2=O)cc1 (configuration not stated) | 10 µM (inactive) | 16.7 µM (inactive) | 12.9 µM (inactive) | 10.5 µM (inactive) | 20.4 µM (inactive) | 16.3 µM (inactive) | 5.19 µM (inactive) | 14.9 µM (inactive) | 1.86 µM (inactive) | 5.75 µM (inactive) | 9.31 µM (inactive) | 14.9 µM (inactive) | 1.79 µM (inactive) | 6.15 µM (inactive) | 15.3 µM (inactive) | 4.17 µM (inactive) | 4.27 µM (inactive) | 16.4 µM (inactive) | 16.6 µM (inactive) | 17.1 µM (inactive)
O=C(CCN1CCCCC1)N1CCc2c([nH]c3ccccc23)C1c1cccnc1 (configuration not stated) | 20.7 µM (inactive) | > 85.5 µM (inactive) | > 100 µM (inactive) | 34.1 µM (inactive) | > 91 µM (inactive) | 61.4 µM (inactive) | 28 µM (inactive) | 57 µM (inactive) | 41.5 µM (inactive) | 28.1 µM (inactive) | 19.5 µM (inactive) | 61.4 µM (inactive) | 38.6 µM (inactive) | 20.8 µM (inactive) | 21.3 µM (inactive) | 61.8 µM (inactive) | 27.9 µM (inactive) | 52.7 µM (inactive) | > 100 µM (inactive) | 37.5 µM (inactive)
Cc1ccc(/N=N/c2c(-c3ccccc3)nn(C(=O)CC(=O)Nc3ccc(Cl)cc3)c2-c2ccccc2)cc1 | 70.5 µM (inactive) | 79.6 µM (inactive) | 44.2 µM (inactive) |  | 77.3 µM (inactive) | 58.9 µM (inactive) | 56.1 µM (inactive) |  | 12.3 µM (inactive) |  | > 100 µM (inactive) | 70.5 µM (inactive) | 36.5 µM (inactive) | 83.6 µM (inactive) | 90.8 µM (inactive) | 61.5 µM (inactive) | 44.5 µM (inactive) | 2.3 µM (inactive) |  | 24.4 µM (inactive)
COC(=O)[C@H](C)[C@H]1CC[C@@](C)([C@H]2CC3C(C)(C)[C@H]4CCC(C)=C[C@H]4C[C@@]3(C)O2)OO1 (some centres not stated) | 13.6 µM (inactive) | 10.4 µM (inactive) | 7.6 µM (inactive) |  | 11.9 µM (inactive) | 15 µM (inactive) | 6.68 µM (inactive) |  | 9.12 µM (inactive) |  | 14.6 µM (inactive) | 8.77 µM (inactive) | 3.33 µM (inactive) | 14.1 µM (inactive) | 4.72 µM (inactive) | 10.5 µM (inactive) | 3.58 µM (inactive) | 13.7 µM (inactive) |  | 14.7 µM (inactive)
NS(=O)(=O)c1ccc(NC(=O)Cc2nc3ccccc3s2)cc1 | 15.7 µM (inactive) | 15.5 µM (inactive) | 15.9 µM (inactive) |  | 19.3 µM (inactive) | 18.3 µM (inactive) | 19.5 µM (inactive) |  | 20.1 µM (inactive) |  | 17.7 µM (inactive) | 16.2 µM (inactive) | 19.4 µM (inactive) | 16 µM (inactive) | 20.2 µM (inactive) | 16.6 µM (inactive) | 15.1 µM (inactive) | 22.6 µM (inactive) |  | 19 µM (inactive)
COCc1cc2c(s1)C(=O)C1=C(C2=O)C2(C=C(Br)C(=O)C(Br)=C2)CCN1 | 1.56 µM (inactive) | 4.98 µM (inactive) | 2.38 µM (inactive) | 3.04 µM (inactive) | 1.65 µM (inactive) | 4.65 µM (inactive) | 11.1 µM (inactive) | 3.15 µM (inactive) | 1.49 µM (inactive) | 1.73 µM (inactive) | 7.67 µM (inactive) | 4.86 µM (inactive) | 4.88 µM (inactive) | 0.946 µM (active) | 1.71 µM (inactive) | 1.41 µM (inactive) | 1.73 µM (inactive) | 11.7 µM (inactive) | 16 µM (inactive) | 6.05 µM (inactive)
C/C(=N\NC(=S)NNC(=S)N(C)c1ccccc1)c1ccccn1 |  | 0.628 µM (active) | 2.79 µM (inactive) | 6.22 µM (inactive) | 1.75 µM (inactive) | 2.07 µM (inactive) | 1.32 µM (inactive) |  |  | 4.06 µM (inactive) | 4.25 µM (inactive) | 2.91 µM (inactive) | 1.3 µM (inactive) | 1.66 µM (inactive) |  | 0.673 µM (active) | 0.399 µM (active) | 0.805 µM (active) | 1.02 µM (active) | 2.94 µM (inactive)
Cc1ccc(NC(=O)CC2C(=O)Nc3ccccc3[S+]2[O-])cc1C (configuration not stated) | > 100 µM (inactive) | 73.8 µM (inactive) | 63.5 µM (inactive) |  | 16.4 µM (inactive) | 23.7 µM (inactive) | > 100 µM (inactive) |  | 63.5 µM (inactive) |  | > 100 µM (inactive) | 75.2 µM (inactive) | 24.8 µM (inactive) | > 100 µM (inactive) | 73.8 µM (inactive) | 49.2 µM (inactive) | 48.1 µM (inactive) | > 100 µM (inactive) |  | > 100 µM (inactive)
COC(=O)C1Cc2c(n(C)c3ccccc23)C(c2ccccc2)N1 (configuration not stated) | 62.8 µM (inactive) | 39.3 µM (inactive) | > 100 µM (inactive) |  | 50.5 µM (inactive) | > 10 µM (inactive) | 49.4 µM (inactive) |  | 67.9 µM (inactive) |  | > 100 µM (inactive) | > 100 µM (inactive) | 80 µM (inactive) | > 100 µM (inactive) | 21.1 µM (inactive) | 34.4 µM (inactive) | 21.8 µM (inactive) | 92.3 µM (inactive) |  | > 100 µM (inactive)
Cn1cnnc1Sc1c([N+](=O)[O-])nc(-c2ccc([N+](=O)[O-])cc2)n1C | 16.5 µM (inactive) | 18.6 µM (inactive) | 18.2 µM (inactive) |  | 16.1 µM (inactive) | 16.7 µM (inactive) | 17.5 µM (inactive) |  | 16.2 µM (inactive) |  | 16 µM (inactive) | 16.9 µM (inactive) | 17.7 µM (inactive) | 14.9 µM (inactive) | 16.9 µM (inactive) | 15.1 µM (inactive) | 17.9 µM (inactive) | 27.5 µM (inactive) |  | > 100 µM (inactive)
CC(=O)C(CN(C)Cc1ccccc1)C(c1ccccc1)c1c(O)c2ccccc2oc1=O (configuration not stated) | > 100 µM (inactive) | > 100 µM (inactive) | > 100 µM (inactive) |  | > 100 µM (inactive) | > 100 µM (inactive) | > 100 µM (inactive) |  | > 100 µM (inactive) |  | > 100 µM (inactive) | > 100 µM (inactive) | > 100 µM (inactive) | > 100 µM (inactive) | > 100 µM (inactive) | > 100 µM (inactive) | > 100 µM (inactive) | > 100 µM (inactive) |  | > 100 µM (inactive)
CCN(CC)[C@@H]1c2cc3c(cc2C(c2cc(OC)c(O)c(OC)c2)C2C(=O)CO[C@@H]21)OCO3 (some centres not stated) | > 100 µM (inactive) | > 100 µM (inactive) | > 100 µM (inactive) |  | > 100 µM (inactive) | > 100 µM (inactive) | > 100 µM (inactive) |  | > 100 µM (inactive) |  | > 100 µM (inactive) | > 100 µM (inactive) | > 100 µM (inactive) | > 100 µM (inactive) | > 100 µM (inactive) | > 100 µM (inactive) | > 100 µM (inactive) | > 100 µM (inactive) |  | > 100 µM (inactive)
CC(=O)OC1CC2C(C)(C)OC(=O)CC(OC(C)=O)[C@]2(C)C2CCC3(C)C(=CCC3[C@H]3COC(=O)C3)[C@]12C (some centres not stated) | 97.7 µM (inactive) | > 100 µM (inactive) | > 100 µM (inactive) |  | > 100 µM (inactive) | > 100 µM (inactive) | > 100 µM (inactive) |  | 24 µM (inactive) |  | 42.6 µM (inactive) | > 100 µM (inactive) | > 100 µM (inactive) | > 100 µM (inactive) | > 100 µM (inactive) | 61.5 µM (inactive) | 70.1 µM (inactive) | 65.5 µM (inactive) |  | 41.5 µM (inactive)
C=C1CC[C@@H]2C(C)(C)CCC[C@@]2(C)[C@@H]1Cc1cc(O)ccc1O | 10.4 µM (inactive) | 3.56 µM (inactive) | 5.97 µM (inactive) |  | 1.8 µM (inactive) | 1.93 µM (inactive) | 13.8 µM (inactive) |  | 2.42 µM (inactive) |  | 2.56 µM (inactive) | 3.38 µM (inactive) | 3.4 µM (inactive) | 5.25 µM (inactive) | 7.06 µM (inactive) | 4.62 µM (inactive) | 1.89 µM (inactive) | 4.65 µM (inactive) |  | 10.2 µM (inactive)
